≈ marks a conversion by molar mass, not a printed value. Read-outs that look alike come from different tables or passages of the source.
Legend:
[1] = tested on: Mycobacterium tuberculosis (strain H37RV); assay: In-vitro method for testing compounds against M. tuberculosis (resazurin growth inhibition, MIC); assay type: cell-based; conditions: MIC data representing IC90's, 7 days incubation, resazurin fluorescence
M. Smegmatis ATCC607 = assay: In-vitro method for testing compounds for anti-bacterial activity against strain M. smegmatis ATCC607 (Alamar Blue growth inhibition); assay type: cell-based; conditions: pIC50 = -logIC50, IC50 in M, 50% inhibitory concentration for bacterial growth, 48 hours incubation; for pIC50: M. smegmatis ATCC607
Protocol: C.2. In-vitro Method for Testing Compounds for Anti-bacterial Activity Against Strain M. Smegmatis ATCC607. […] Subsequently, stock solutions (7.8×final test concentration) of compounds were added in 45 μl volumes to a series of duplicate wells in column 2 so as to allow evaluation of their effects on bacterial growth. Serial five-fold dilutions (45 μl in 180 μl) were made directly in the microtiter plates from column 2 to 11 using a customised robot system (Zymark Corp., Hopkinton, Mass.). Pipette tips were changed after every 3 dilutions to minimize pipetting errors with high hydrophobic compounds. Untreated control samples with (column 1) and without (column 12) inoculum were included in each microtiter plate. Approximately 250 CFU per well of bacteria inoculum, in a volume of 100 μl in 2.8×Mueller-Hinton broth medium, was added to the rows […]. The same volume of broth medium without inoculum was added to column 12 in row A to H. The cultures were incubated at 37° C. for 48 hours in a humidified 5% CO2 atmosphere (incubator with open air valve and continuous ventilation). At the end of incubation, two days after inoculation, the bacterial growth was quantitated fluorometrically. Therefore Alamar Blue (10×) was added to all wells in a volume of 20 μl and plates were incubated for another 2 hours at […] The fluorescence was read in a computer-controlled fluorometer (Cytofluor, Biosearch) at an excitation wavelength of 530 nm and an emission wavelength of 590 nm (gain 30). The % growth inhibition achieved by the compounds was calculated according to standard methods.

[2] = Mycobacterium tuberculosis, H37RV, 168 h, read-out: MIC

Structure (SMILES): CSc1nc2ccc(Br)cc2cc1C(c1ccccc1)C(O)(CCN(C)C)c1ccccc1 (single isomer, unassigned) [Compound 32]
- MIC [1]: 0.33 microgram/ml
- pIC50 (M. Smegmatis ATCC607): 7.4

Structure (SMILES): COc1nc2ccc(Br)cc2cc1C(c1ccccc1)C(O)(CCc1ccccc1)CCN(C)C (single isomer, unassigned) [Compound 96]
- MIC [1]: 21.24 microgram/ml
- pIC50 (M. Smegmatis ATCC607): 6.2

Structure (SMILES): COc1nc2ccc(Br)cc2cc1C(c1ccccc1)C(O)(CN(C)C)c1ccccc1 (single isomer, unassigned) [Compound 62]
- MIC [1]: 7.79 microgram/ml
- pIC50 (M. Smegmatis ATCC607): 5.9

Structure (SMILES): COc1nc2ccc(C#N)cc2cc1C(c1ccccc1)C(O)(CCN(C)C)c1cccc(F)c1 (single isomer, unassigned) [Compound 179]
- MIC [1]: 1.48 microgram/ml
- pIC50 (M. Smegmatis ATCC607): 7.0

Structure (SMILES): COc1nc2ccc(Br)cc2cc1C(c1ccccc1)C(O)(CCCN1CCCC1)c1ccc2ccccc2c1 (single isomer, unassigned) [Compound 133]
- MIC [1]: 59.56 microgram/ml
- pIC50 (M. Smegmatis ATCC607): 5.1

Structure (SMILES): COc1nc2ccc(Br)cc2cc1C(c1ccccc1)C(O)(CCN(C)C)c1ccc(N2CCOCC2)cc1 (racemic) [Compound 89]
- MIC [1]: 59.06 microgram/ml
- pIC50 (M. Smegmatis ATCC607): 6.4

Structure (SMILES): COc1nc2ccc(-c3ccccc3)cc2cc1C(c1ccccc1)C(O)(CCN(C)C)c1cccc2ccccc12 (racemic) [Compound 84]
- MIC [1]: 8.76 microgram/ml
- pIC50 (M. Smegmatis ATCC607): 7.0

Structure (SMILES): COc1nc2ccc(Br)cc2cc1C(c1ccccc1)C(O)(CCN(C)C)c1ccccc1F (racemic) [Compound 69]
- MIC [1]: 0.13 microgram/ml
- pIC50 (M. Smegmatis ATCC607): 8.5

Structure (SMILES): COc1nc2ccc(Br)cc2cc1C(c1ccccc1)C(O)(CCN(C)C)c1ccc(C#N)cc1 (racemic) [Compound 80]
- MIC [1]: 2.11 microgram/ml
- pIC50 (M. Smegmatis ATCC607): 7.1

Structure (SMILES): COc1nc2ccc(Br)cc2cc1C(c1ccccc1)C(O)(CCN(C)C)c1cccc2c1CCCC2 (single isomer, unassigned) [Compound 131]
- MIC [1]: 44.45 microgram/ml
- pIC50 (M. Smegmatis ATCC607): 6.9

Structure (SMILES): COc1nc2ccc(Br)cc2cc1C(c1ccccc1)C(O)(CCN(C)C)c1ccc(F)cc1 (single isomer, unassigned) [Compound 181]
- MIC [1]: 8.30 microgram/ml
- pIC50 (M. Smegmatis ATCC607): 6.9

Structure (SMILES): COc1nc2ccc(Br)cc2cc1C(c1ccccc1)C(O)(CCCN1CCCC1)c1cccc2ccccc12 (single isomer, unassigned) [Compound 194]
- MIC [1]: 47.31 microgram/ml
- pIC50 (M. Smegmatis ATCC607): 4.9

Structure (SMILES): COc1nc2cc(Br)ccc2cc1C(c1ccccc1)C(O)(CCN(C)C)c1cccc2ccccc12 (single isomer, unassigned) [Compound 218]
- MIC [1]: 8.80 microgram/ml
- pIC50 (M. Smegmatis ATCC607): 6.6

Structure (SMILES): CN(C)CCC(O)(c1cccc2ccccc12)C(c1ccccc1)c1cc2cc(Br)ccc2nc1N1CCOCC1 (racemic) [Compound 79]
- MIC [1]: 2.43 microgram/ml
- pIC50 (M. Smegmatis ATCC607): 7.2

Structure (SMILES): COc1nc2ccc(Br)cc2cc1C(c1ccccc1)C(O)(CCN(C)C)c1cccs1 (single isomer, unassigned) [Compound 20]
- MIC [1]: 40.63 microgram/ml
- pIC50 (M. Smegmatis ATCC607): 5.9

Structure (SMILES): COc1nc2ccc(Br)cc2cc1C(c1ccccc1)C(O)(CCN1CCOCC1)c1ccc2ccccc2c1 (single isomer, unassigned) [Compound 140]
- MIC [1]: 59.76 microgram/ml
- pIC50 (M. Smegmatis ATCC607): 5.8

Structure (SMILES): COc1nc2ccc(Br)cc2cc1C(c1ccccc1)C(O)(CCN(C)C)c1ccc2c(c1)OCCO2 (racemic) [Compound 77]
- MIC [1]: 8.93 microgram/ml
- pIC50 (M. Smegmatis ATCC607): 7.2

Structure (SMILES): COc1nc2cc(C)c(C)cc2cc1C(c1ccccc1)C(O)(CCN(C)C)c1cccc2ccccc12 (single isomer, unassigned) [Compound 229]
- MIC [1]: 40.09 microgram/ml
- pIC50 (M. Smegmatis ATCC607): 7.1

Structure (SMILES): COc1nc2ccc(Br)cc2cc1C(c1ccccc1)C(O)(CC[N+](C)(C)C)c1cccc2ccccc12.[I-] (racemic) [Compound 103]
- MIC [1]: 5.54 microgram/ml
- pIC50 (M. Smegmatis ATCC607): 5.9

Structure (SMILES): COc1nc2ccc(-c3ccco3)cc2cc1C(c1ccccc1)C(O)(CCN(C)C)c1cccc(F)c1 (single isomer, unassigned) [Compound 174]
- MIC [1]: 0.06 microgram/ml
- pIC50 (M. Smegmatis ATCC607): 6.8

Structure (SMILES): COc1nc2ccc(Br)cc2cc1C(c1ccccc1)C(O)(CCN(C)C)c1ccc(F)c(F)c1 (racemic) [Compound 195]
- MIC [1]: 6.82 microgram/ml
- pIC50 (M. Smegmatis ATCC607): 6.5

Structure (SMILES): COc1nc2ccc(Br)cc2cc1C(c1ccccc1)C(O)(CC[N+](C)(C)C)c1cccc2ccccc12.[I-] (single isomer, unassigned) [Compound 121]
- MIC [1]: 2.21 microgram/ml
- pIC50 (M. Smegmatis ATCC607): 5.9

Structure (SMILES): COc1nc2ccc(Br)cc2cc1C(c1ccccc1)C(O)(CCN1CCOCC1)c1cccc2ccccc12 (single isomer, unassigned) [Compound 158]
- MIC [1]: 59.76 microgram/ml
- pIC50 (M. Smegmatis ATCC607): 5.3

Structure (SMILES): COc1nc2ccc(Br)cc2cc1C(c1ccccc1)C(O)(CCN(C)C)c1cccc2ccccc12 (stereo not drawn) [Compound 14]
- MIC [1]: 8.80 microgram/ml
- pIC50 (M. Smegmatis ATCC607): 6.8

Structure (SMILES): COc1nc2ccc(Br)cc2cc1C(c1ccccc1)C(O)(CCN)c1ccccc1 (stereo not drawn) [Compound 44]
- MIC [1]: 6.01 microgram/ml
- pIC50 (M. Smegmatis ATCC607): 5.9

Structure (SMILES): COc1nc2ccc(C)cc2cc1C(c1ccccc1)C(O)(CCN(C)C)c1ccccc1 (single isomer, unassigned) [Compound 23]
- MIC [1]: 8.79 microgram/ml
- pIC50 (M. Smegmatis ATCC607): 6.4

Structure (SMILES): COc1nc2ccc(Br)cc2cc1C(c1ccccc1)C(O)(CCN(C)C)c1ccc2c(c1)OCCO2 (racemic) [Compound 78]
- MIC [1]: 44.76 microgram/ml
- pIC50 (M. Smegmatis ATCC607): 5.8

Structure (SMILES): COc1nc2cccc(Br)c2cc1C(c1ccccc1)C(O)(CCN(C)C)c1cccc2ccccc12 (single isomer, unassigned) [Compound 224]
- MIC [1]: 44.13 microgram/ml
- pIC50 (M. Smegmatis ATCC607): 4.9

Structure (SMILES): COc1nc2ccc(C)cc2cc1C(c1ccccc1)C(O)(CCN(C)C)c1cccc2ccccc12 (racemic) [Compound 82]
- MIC [1]: 3.90 microgram/ml
- pIC50 (M. Smegmatis ATCC607): 7.1

Structure (SMILES): COc1nc2ccc(Br)cc2cc1C(c1ccccc1)C(O)(CCN1CCCCC1)c1ccc2ccccc2c1 (stereo not drawn) [Compound 129]
- MIC [1, 2]: 47.3 µg/mL (≈ 79.4 µM)
- pIC50 (M. Smegmatis ATCC607): 4.7

Structure (SMILES): COc1nc2ccccc2cc1C(c1ccccc1)C(O)(CCN(C)C)c1ccccc1 (single isomer, unassigned) [Compound 41]
- MIC [1]: 8.51 microgram/ml
- pIC50 (M. Smegmatis ATCC607): 5.9

Structure (SMILES): COc1nc2ccc(Br)cc2cc1C(c1ccccc1)C(O)(CCCCN(C)C)c1ccc2ccccc2c1 (single isomer, unassigned) [Compound 191]
- MIC [1]: 1.85 microgram/ml
- pIC50 (M. Smegmatis ATCC607): 6.5

Structure (SMILES): COc1nc2ccc(C#N)cc2cc1C(c1ccccc1)C(O)(CCN(C)C)c1cccc(F)c1 (single isomer, unassigned) [Compound 180]
- MIC [1]: 3.73 microgram/ml
- pIC50 (M. Smegmatis ATCC607): 6.6

Structure (SMILES): COc1nc2ccc(-c3ccc(CO)o3)cc2cc1C(c1ccccc1)C(O)(CCN(C)C)c1cccc2ccccc12 (single isomer, unassigned) [Compound 212]
- MIC [1]: 9.08 microgram/ml
- pIC50 (M. Smegmatis ATCC607): 6.0

Structure (SMILES): COc1nc2ccc(Br)cc2cc1C(c1ccccc1)C(O)(CCCN(C)C)c1ccc2ccccc2c1 (single isomer, unassigned) [Compound 125]
- MIC [1]: 18.01 microgram/ml
- pIC50 (M. Smegmatis ATCC607): 4.4

Structure (SMILES): COc1nc2ccc(Br)cc2cc1C(c1ccccc1)C(O)(CCN1CCN(C)CC1)c1ccccc1 (racemic) [Compound 52]
- MIC [1]: 7.06 microgram/ml
- pIC50 (M. Smegmatis ATCC607): 6.4

Structure (SMILES): COc1nc2ccc(C)cc2cc1C(c1ccccc1)C(O)(CCN(C)C)c1cccc2ccccc12 (racemic) [Compound 83]
- MIC [1]: 7.78 microgram/ml
- pIC50 (M. Smegmatis ATCC607): 5.8

Structure (SMILES): COc1ccc2cc(C(O)(CCN(C)C)C(c3ccccc3)c3cc4cc(Br)ccc4nc3OC)ccc2c1 (single isomer, unassigned) [Compound 163]
- MIC [1]: 46.51 microgram/ml
- pIC50 (M. Smegmatis ATCC607): 5.9

Structure (SMILES): COc1nc2ccc(Br)cc2cc1C(c1ccccc1)C(O)(CCN(C)C)c1cccnc1 (racemic) [Compound 87]
- MIC [1]: 40.23 microgram/ml
- pIC50 (M. Smegmatis ATCC607): 5.0

Structure (SMILES): COc1nc2ccc(Br)cc2cc1C(c1ccccc1)C(O)(CCN(C)C)c1cc(Br)cc2ccccc12 (single isomer, unassigned) [Compound 150]
- MIC [1]: 63.44 microgram/ml
- pIC50 (M. Smegmatis ATCC607): 5.7

Structure (SMILES): COc1nc2ccc(Br)cc2cc1[C@@H](c1ccccc1)[C@@](O)(CCN(C)C)c1cccc2ccccc12 [Compound 12, (1R,2S) 1-(6-bromo-2-methoxy-quinolin-3-yl)-4-dimethylamino-2-naphthalen-1-yl-1-phenyl-butan-2-ol]
- MIC [1, 2]: 0.07 µg/mL (≈ 0.126 µM)
- IC50 (M. Smegmatis ATCC607; Mycolicibacterium smegmatis, ATCC607, 48 h, read-out: pIC50, M. smegmatis ATCC607 (converted)): 2 nM

Structure (SMILES): COc1nc2ccc(Br)cc2cc1C(c1ccccc1)C(O)(CCN(C)C)c1cccc(F)c1 (stereo not drawn) [Compound 39]
- MIC [1]: 8.30 microgram/ml
- pIC50 (M. Smegmatis ATCC607): 6.1

— US7498343B2, “Mycobacterial inhibitors” (priority 2002, dated 2009)
